Test results: ChEMBL document CHEMBL1201862, “PubChem BioAssay data set” (2004)
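48-hour exposure; five concentrations; linearly interpolated endpoints. GI50 marks 50% less growth.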 Active and inactive are the calls of the source. Cut-off read from the data, not from the text of the source: active = GI50 up to about 1.1 µM and inactive = higher.

How the values were obtained:
Assay in all cases: NCI-60 cell line screen, 48 h
HT-29 = test system: HT-29
HOP-62 = test system: HOP-62
SF-295 = test system: SF-295
HCC 2998 = test system: HCC 2998
T47D = test system: T47D
MOLT-4 = test system: MOLT-4
NCI/ADR-RES = test system: NCI/ADR-RES
SK-MEL-2 = test system: SK-MEL-2
SF-268 = test system: SF-268
LOX IMVI = test system: LOX IMVI
HCT-15 = test system: HCT-15
SNB-75 = test system: SNB-75
UACC-62 = test system: UACC-62
U-251 = test system: U-251
786-0 = test system: 786-0
HCT-116 = test system: HCT-116
SK-MEL-28 = test system: SK-MEL-28
Malme-3M = test system: Malme-3M
NCI-H23 = test system: NCI-H23
HOP-92 = test system: HOP-92

Compound | GI50 (HT-29) | GI50 (HOP-62) | GI50 (SF-295) | GI50 (HCC 2998) | GI50 (T47D) | GI50 (MOLT-4) | GI50 (NCI/ADR-RES) | GI50 (SK-MEL-2) | GI50 (SF-268) | GI50 (LOX IMVI) | GI50 (HCT-15) | GI50 (SNB-75) | GI50 (UACC-62) | GI50 (U-251) | GI50 (786-0) | GI50 (HCT-116) | GI50 (SK-MEL-28) | GI50 (Malme-3M) | GI50 (NCI-H23) | GI50 (HOP-92)
CC(C)(C)c1ccc(C(O)(c2ccc(C(C)(C)C)cc2)c2ccc(C(C)(C)C)cc2)cc1 | > 100 µM (inactive) | > 100 µM (inactive) | > 100 µM (inactive) | > 100 µM (inactive) | > 100 µM (inactive) | > 100 µM (inactive) | > 100 µM (inactive) | > 100 µM (inactive) | > 100 µM (inactive) | > 100 µM (inactive) | > 100 µM | > 100 µM (inactive) | > 100 µM (inactive) | > 100 µM (inactive) | > 100 µM (inactive) | > 100 µM (inactive) | > 100 µM (inactive) | 6.92 µM (inactive) | > 100 µM (inactive) | 
Cn1c2n/c(=N\c3ccc(Cl)cc3)[n+]3ccc4ccccc4c3c-2c([O-])n1-c1ccccc1 | > 100 µM (inactive) | > 100 µM (inactive) | > 100 µM (inactive) | > 100 µM (inactive) | > 100 µM (inactive) | > 100 µM (inactive) | > 100 µM (inactive) | > 100 µM (inactive) | > 100 µM (inactive) | > 100 µM (inactive) | > 100 µM | > 100 µM (inactive) | > 100 µM (inactive) | > 100 µM (inactive) | > 100 µM (inactive) | > 100 µM (inactive) | > 100 µM (inactive) | > 100 µM (inactive) | > 100 µM (inactive) | 
Oc1cn(-c2ccc(Cl)cc2)nc1-c1nnc(Nc2ccccc2)o1 | 9.55 µM (inactive) | 17.7 µM (inactive) | 18.9 µM (inactive) |  | 23 µM (inactive) |  | 14.9 µM (inactive) | 20.2 µM (inactive) | 14.6 µM (inactive) |  | 10.4 µM | 20.8 µM (inactive) | 16.6 µM (inactive) | 17.5 µM (inactive) | 16.6 µM (inactive) | 16.1 µM (inactive) | 17.7 µM (inactive) | 25.2 µM (inactive) | 14.1 µM (inactive) | 
Fc1cc(C2=Nn3c(CNc4ccc(Cl)cc4)nnc3S/C2=C\c2ccc(-c3ccc(Cl)cc3)o2)c(Cl)cc1Cl | 32.8 µM (inactive) | 21.8 µM (inactive) | 22.3 µM (inactive) | 57.8 µM (inactive) | 41.7 µM (inactive) | 3.33 µM (inactive) | 6.53 µM (inactive) | 22.6 µM (inactive) | 53.2 µM (inactive) | 22.8 µM (inactive) | > 100 µM |  | 13.6 µM (inactive) | 18.6 µM (inactive) | 32.3 µM (inactive) | 63.2 µM (inactive) | 67 µM (inactive) | 17.3 µM (inactive) | 81.8 µM (inactive) | 
Cn1c2ccccc2n2c(=O)c3cccnc3c(C#N)c12 | 63 µM (inactive) | 76.2 µM (inactive) | > 100 µM (inactive) |  | > 100 µM (inactive) | 7.45 µM (inactive) | 70.3 µM (inactive) |  | > 100 µM (inactive) | 39.1 µM (inactive) | 37.8 µM | > 100 µM (inactive) |  | > 100 µM (inactive) | > 100 µM (inactive) | 94.2 µM (inactive) | > 100 µM (inactive) | > 100 µM (inactive) | 33.3 µM (inactive) | > 100 µM (inactive)
COC(=O)C1C(O)CCC2CN3CCc4c([nH]c5cccc(OC)c45)C3CC21 (stereo unspecified) | > 100 µM (inactive) | > 100 µM (inactive) | > 100 µM (inactive) | > 100 µM (inactive) | > 100 µM (inactive) | > 100 µM (inactive) |  | > 100 µM (inactive) | > 100 µM (inactive) | > 100 µM (inactive) | > 100 µM | > 100 µM (inactive) | > 100 µM (inactive) | > 100 µM (inactive) | > 100 µM (inactive) | > 100 µM (inactive) | > 100 µM (inactive) | > 100 µM (inactive) | > 100 µM (inactive) | > 100 µM (inactive)
Cc1sc2nc3n(c(=O)c2c1C)N=CN(c1ccc(Cl)cc1)C3 | > 100 µM (inactive) | 99.3 µM (inactive) | > 100 µM (inactive) | > 100 µM (inactive) |  | > 100 µM (inactive) | > 100 µM (inactive) | > 100 µM (inactive) | 39.4 µM (inactive) | > 100 µM (inactive) | > 100 µM | > 100 µM (inactive) | > 100 µM (inactive) | > 100 µM (inactive) | > 100 µM (inactive) | > 100 µM (inactive) | > 100 µM (inactive) | 33.3 µM (inactive) | > 100 µM (inactive) | > 100 µM (inactive)
O=C1CN2C(c3ccccc3)=NN(c3ccc([N+](=O)[O-])cc3)C2(c2ccccc2)c2cc(Cl)ccc2N1CC1CC1 (stereo unspecified) | > 100 µM (inactive) | > 100 µM (inactive) | > 100 µM (inactive) | > 100 µM (inactive) |  | 79.4 µM (inactive) | > 100 µM (inactive) |  | > 100 µM (inactive) | > 100 µM (inactive) | > 100 µM | > 100 µM (inactive) | > 100 µM (inactive) | > 100 µM (inactive) | > 100 µM (inactive) | > 100 µM (inactive) | > 100 µM (inactive) | > 100 µM (inactive) | > 100 µM (inactive) | > 100 µM (inactive)
Nc1ccc2c(c1)N(C(=O)CCCC(=O)N1CC(CCl)c3ccc(N)cc31)CC2CCl (stereo unspecified) | 0.946 µM (active) | 0.262 µM (active) | 0.4 µM (active) | 1.45 µM (inactive) |  | 0.0646 µM (active) | 1.15 µM (inactive) | 0.587 µM (active) | 0.115 µM (active) | 0.267 µM (active) | 1.24 µM | 0.535 µM (active) | 0.354 µM (active) | 0.513 µM (active) | 0.169 µM (active) | 0.394 µM (active) | 1.23 µM (inactive) | 0.0883 µM (active) | 0.218 µM (active) | 1.97 µM (inactive)
CN(C)C(=C1c2cc([N+](=O)[O-])ccc2-c2ccc([N+](=O)[O-])cc21)N(C)C | > 100 µM (inactive) | > 100 µM (inactive) | > 100 µM (inactive) | > 100 µM (inactive) | 4.11 µM (inactive) | 5.24 µM (inactive) | > 100 µM (inactive) | > 100 µM (inactive) | > 100 µM (inactive) |  | > 100 µM | > 100 µM (inactive) | > 100 µM (inactive) | > 100 µM (inactive) | > 100 µM (inactive) | > 100 µM (inactive) | > 100 µM (inactive) | > 100 µM (inactive) | > 100 µM (inactive) | 
C/C=C1\CNC1C(=O)O (stereo unspecified) | > 100 µM (inactive) | > 100 µM (inactive) | > 100 µM (inactive) | > 100 µM (inactive) |  |  | > 100 µM (inactive) | > 100 µM (inactive) | > 100 µM (inactive) | > 100 µM (inactive) | > 100 µM |  | > 100 µM (inactive) |  | > 100 µM (inactive) | > 100 µM (inactive) | > 100 µM (inactive) | > 100 µM (inactive) | > 100 µM (inactive) | > 100 µM (inactive)
COc1cc(C2c3cc4c(cc3OC(O)C2C)OCO4)cc(OC)c1OC (stereo unspecified) | 0.346 µM (active) | 0.306 µM (active) | 0.324 µM (active) | 0.61 µM (active) |  | 0.473 µM (active) | 0.214 µM (active) | 0.486 µM (active) | 1.51 µM (inactive) | 0.69 µM (active) | 0.403 µM | 0.244 µM (active) | 0.349 µM (active) | 0.33 µM (active) | 0.507 µM (active) | 0.349 µM (active) | 0.863 µM (active) | 0.431 µM (active) | 0.59 µM (active) | 0.562 µM (active)
CC(=O)O[C@@H]1[C@@H](C)[C@]2(CC(c3ccoc3)OC2O)C2CCC3O[C@]3(C)[C@]2(C)[C@@H]1OC(C)=O (stereo partly specified) | 32 µM (inactive) |  | 71.6 µM (inactive) |  | 28.5 µM (inactive) | 19.1 µM (inactive) | 40.2 µM (inactive) | 57.4 µM (inactive) | 91 µM (inactive) | 22.3 µM (inactive) | 25.4 µM | 46.7 µM (inactive) | 20.4 µM (inactive) | 83 µM (inactive) | 19.2 µM (inactive) | 33.7 µM (inactive) | 25.9 µM (inactive) |  | 37.4 µM (inactive) | 34 µM (inactive)
O=C1Nc2c(Cl)cc(Cl)cc2/C1=N/N=C/c1ccco1 | 28.8 µM (inactive) | 34.7 µM (inactive) | 31.7 µM (inactive) | 37.3 µM (inactive) |  | 27.2 µM (inactive) | 21.4 µM (inactive) | 24.4 µM (inactive) |  | 17.8 µM (inactive) | 28.8 µM | 10.5 µM (inactive) | 21.5 µM (inactive) | 27.7 µM (inactive) | 38.8 µM (inactive) | 33 µM (inactive) | 33 µM (inactive) | 56.6 µM (inactive) | 25 µM (inactive) | 27.4 µM (inactive)
CSC[C@H](NC(=O)COc1cccc2cnccc12)C(=O)NC(Cc1ccccc1)C(O)C(=O)N1CSC[C@H]1C(=O)NC(C)(C)C (stereo partly specified) | 33.7 µM (inactive) | > 100 µM (inactive) | 60.4 µM (inactive) | > 100 µM (inactive) | 36.6 µM (inactive) | 17.7 µM (inactive) | > 100 µM (inactive) | > 100 µM (inactive) | 16.9 µM (inactive) | 31.8 µM (inactive) | > 100 µM | 78.9 µM (inactive) | 57.3 µM (inactive) | 95.3 µM (inactive) | 44.5 µM (inactive) | 23 µM (inactive) | 78.2 µM (inactive) | > 100 µM (inactive) | 82.4 µM (inactive) | 
